Measurements taken from US12048687B2, “Methods of recruiting SDF-producing macrophages” (MedRegen, LLC, priority 2013, dated 2024).
Entries after “also recorded” stand apart in the source; their conditions may differ.

Tests used:
[1] = tested on: α-smooth muscle actin (SMA) positive myofibroblast cells; experiment: immunofluorescence staining for α-SMA; assay type: in vivo, mouse; details: mice, five days; versus saline group 1
Method: (§1) Immunofluorescence staining: For the immunofluorescence staining, frozen sections were fixed with acetone (−20° C.) for 10 min and dried for 1 h at room temperature. PBS containing 1% BSA and 5% normal donkey serum was used to block nonspecific background. Sections were incubated for 1.5 h at room temperature with primary antibodies included: rabbit polyclonal antibody specific for CD133 (1:100, ab19898, Abcam, Cambridge, MA), rabbit polyclonal antibody specific for c-Kit (1:100, sc-168, Santa Cruz Biotechnology, Santa Cruz, CA), goat polyclonal antibody specific for CD34 (1:100, AF4117, R&D Systems, Minneapolis, MN), mouse monoclonal antibody specific for SDF-1 (1:100, MAB310, R&D Systems), FITC-conjugated rat monoclonal antibody specific for F4/80 (1:100, 11-4801, eBioscience, San Diego, CA), mouse monoclonal antibody specific for α-SMA (1:100, ab7817, Abcam), rat monoclonal antibody specific for CD31 (1:100, 14-0311, eBioscience) or rabbit polyclonal antibody specific for HGF (1:100, sc-7949, Santa Cruz), or the combinations of two of them for double fluorescence staining. […] Tissue sections were analyzed by confocal microscopy (Carl Zeiss Microscopy, Thornwood, NY).

[2] = tested on: full-thickness burn wounds; experiment: burn wound model in mice; assay type: in vivo, mouse; details: burned mice; Tacrolimus 0.1 mg/kg daily, AMD3100 1.0 mg/kg every two days s.c.; saline day 26
Method: Burn wound model in mice. Mice aged […] were anesthetized with 3% isoflurane (Baxter Healthcare Co., Deerfield, IL, USA) using an anesthesia machine, shaved on the dorsum and depilated with Nair cream (Church & Dwight Co., Princeton, NJ, USA). The burn wound was generated as previously reported (Arch Surg 2010; 145: 259-266). Briefly, a custom made 100-g aluminum rod was heated in a 100° C. water bath for 5 min. One burns of 1.2-cm diameter were produced on the dorsum of each mouse. To assure burn uniformity, only the weight of the rod provided pressure to the skin surface. Contact time of 4 s measured with a metronome was chosen to produce a standardized full-thickness burn. The burns were third degree including destruction of the skin, subcutaneous tissue and the Panniculous carnosus. Buprenorphine (0.1 mg/kg) was administrated subcutaneously for analgesia. Treatment and wound measurement. […] Each wound site was digitally photographed at the indicated time intervals, and wound areas were determined on photographs using Adobe Photoshop (version 7.0; Adobe Systems, San Jose, CA). Changes in wound areas over time were expressed as the percentage of the initial wound areas. All wound evaluations were double blinded.

[3] = tested on: full-thickness skin excisional wounds; experiment: in vivo full-thickness excisional wound model, mice; design: species or system mouse (C57BL/6); details: for day of complete wound closure: 5-mm excisions, s.c. Tacrolimus 0.1 mg kg-1 daily, AMD3100 1.0 mg kg-1 every other day, saline day 12
Source text: In vivo excisional wound model. Animals aged 8-12 weeks were anesthetized with Isoflurane. The dorsal skin was shaved and cleaned with betadine and 70% ethanol. In mice, the midline and four points 1 cm on each side of the midline were marked by pen. Two points were at the level of the costal margin and two at the iliac crests designating the sites for excision (FIG. 1A). In rats, the four excisional wounds were placed 1 cm to either side of the midline and 1 cm above and below the midpoint between the costal margin and the iliac […] (FIG. 7a). The sterile disposable biopsy punch (5 mm in diameter; Miltex) was aligned vertically over the center of the mark and punched through the skin and Panniculus carnosus by applying pressure and twisting at the same time. The same procedure was repeated, generating four wounds on each animal (Tomlinson and Ferguson, 2003). The animals were house singly after regaining consciousness. For the mouse splinted wound model, one 5 mm excision was made on each side of the midline on the mid back. The donut-shaped, 0.5 mm-thick silicone splints with a diameter two times that of the wound (Grace Bio-Laboratories, Bend, OR) were then centered, sutured and glued (Krazy Glue®; Elmer's Inc., Columbus, OH) (FIG. 1F; Galiano et al., 2004). […] Each wound site was digitally photographed at the indicated time intervals, and wound areas were determined on photographs using Adobe Photoshop (version 7.0; Adobe Systems, San Jose, CA). Changes in wound areas over time were expressed as the percentage of the initial wound areas (FIG. 1). Example 1: AMD3100 plus low-dose Tacrolimus accelerated wound healing after full-thickness skin excision. Four full-thickness wounds were generated by 5-mm diameter circular excisions on the shaved back of a wild-type C57/B6 mouse (FIG. 1A). Each wound site was photographed digitally at the indicated time intervals, and wound areas were calculated using Adobe Photoshop software. Changes in wound areas over time were expressed as the percentage of the initial wound areas (FIG. 1b). […] All wound evaluations were double blinded.

[4] = tested on: cell migration stimulated by CXCL12; details: cited from earlier work
[5] = tested on: hair follicles and scar in healed wounds; experiment: histology and hair follicle quantification of re-epithelialized wounds, mice; assay type: in vivo, mouse; details: day 15
Source text: Histology and microscopy. Tissues from wound sites were collected at day 3, 5, 7, 9 and 15 after injury. Quantitative analysis of hair follicles: The number of regenerated hair follicles was quantified in a double-blind fashion. In nonwounded skin, the number of hair follicles in the area from the same location as the wound were counted and compared to experimental groups (FIG. 2A and FIG. 9A; broken lines indicated wound margin). Masson's trichrome (commercial kit from Polysciences, Inc. Warrington, PA) was used to detect collagen fibers (blue color).

[6] = tested on: skin excisional wounds in diabetic rats; experiment: skin excisional wound healing in STZ-induced diabetic rats; assay type: in vivo, rat (Lewis); details: Tacrolimus 0.1 mg/kg daily, AMD3100 1.0 mg/kg every two days s.c., saline day 23
Source text: Diabetic rat model. Streptozotocin (STZ) is an antibiotic that can cause pancreatic beta-cell destruction, so it is widely used experimentally as an agent capable of inducing insulin-dependent diabetes mellitus (IDDM), also known as type 1 diabetes mellitus (T1DM). The most common animal model of human diabetes is streptozotocin (STZ)-induced diabetes in the rat. Streptozotocin (STZ)-induced diabetic rat model used to determine the skin wound healing. All rats (aged at 12-16 weeks) developed diabetes (blood glucose >450 mg/dL) 2 weeks after STZ injection (50 mg/kg, i.p.). The four excisional wounds were placed 1 cm to either side of the midline and 1 cm above and below the midpoint between the costal margin and the iliac crests. The sterile disposable biopsy punch (5 mm in diameter; Miltex) was aligned vertically over the center of the mark and punched through the skin and Panniculus carnosus by applying pressure and twisting at the same time. The same procedure was repeated, generating four wounds on each animal. Treatment and wound measurement. […] Each wound site was digitally photographed at the indicated time intervals, and wound areas were determined on photographs using Adobe Photoshop (version 7.0; Adobe Systems, San Jose, CA). Changes in wound areas over time were expressed as the percentage of the initial wound areas. All wound evaluations were double blinded.

splinted skin wounds = experiment: excisional wound splinting model, mice; assay type: in vivo, mouse; details: low-dose regimen, versus saline
Source text: In vivo excisional wound model. Animals aged 8-12 weeks were anesthetized with Isoflurane. The dorsal skin was shaved and cleaned with betadine and 70% ethanol. In mice, the midline and four points 1 cm on each side of the midline were marked by pen. Two points were at the level of the costal margin and two at the iliac crests designating the sites for excision (FIG. 1A). […] The sterile disposable biopsy punch (5 mm in diameter; Miltex) was aligned vertically over the center of the mark and punched through the skin and Panniculus carnosus by applying pressure and twisting at the same time. The same procedure was repeated, generating four wounds on each animal (Tomlinson and Ferguson, 2003). The animals were house singly after regaining consciousness. For the mouse splinted wound model, one 5 mm excision was made on each side of the midline on the mid back. The donut-shaped, 0.5 mm-thick silicone splints with a diameter two times that of the wound (Grace Bio-Laboratories, Bend, OR) were then centered, sutured and glued (Krazy Glue®; Elmer's Inc., Columbus, OH) (FIG. 1F; Galiano et al., 2004).
To deter this mechanism, we performed the excisional wound splinting model, where a splinting ring is bonded tightly to the skin around the wound (FIG. 1e). The wound therefore heals through granulation and re-epithelialization, a process similar to the healing of most human skin defects.

[7] = tested on: c-Kit+, CD34+, CD133+ cells in wound tissue; experiment: immunofluorescence staining of wound sections for stem cell markers; assay type: in vivo, mouse; details: mice, 5 days post-injury
Method: as §1

[8] = tested on: lacZ and GFP positive (CD133 lineage) cells in granulation tissues; experiment: CD133 lineage tracing in wounded CD133+/C-L mice; assay type: in vivo, mouse (CD133+/C-L); details: 5 days after wounding, versus saline group 1
Method: To activate CreERT2 expressed from the CD133C-L locus, thereby irreversibly activating GFP expression in CD133+ cells and their progeny, 7 days prior to surgery, adult mT/mG; CD133+/C-L-RosaEGFP mice were injected intraperitoneally with 5.0 mg of tamoxifen (Sigma) dissolved in corn oil (FIG. 6a; Muzumdar et al., 2007). […] Animal were sacrificed by CO2 euthanasia at indicated time points and skin samples including and surrounding the wound area were excised, fixed in 2% paraformaldehyde overnight at 4° C., cryo-protected in 30% sucrose overnight at 4° C. and frozen in OCT (optimum cutting temperature). Frozen sections were obtained using a Leica cryostat and slides were washed in PBS for 5 min. The lacZ analysis was performed with commercial β-Galactosidase staining kit (BioVision Inc. Milpitas, CA) utilizes X-gal as the substrate. […] For GFP microscopy, the skin sections were overlaid with mounting medium with DAPI (Vector Laboratories Inc., Burlingame, CA) and imaged with a confocal fluorescence microscopy (Carl Zeiss Microscopy, Thornwood, NY). To identify structure of lacZ- and GFP-positive tissues and cells, the same section was sequentially stained with DAPI for GFP fluorescence studies, followed by staining with X-gal and hematoxylin and eosin (H&E) (IHC World, Woodstock, MD), according to the manufacturer's instructions. […]

[9] = tested on: SDF-1 and F4/80 positive cells (macrophages) in wound sites; experiment: immunofluorescence staining for SDF-1 and F4/80; assay type: in vivo, mouse; details: mice, 5 days post-injury
Method: as §1

SDF-1 mRNA = experiment: semi-quantitative RT-PCR of granulation tissues, SDF-1; assay type: in vivo, mouse; details: mice, 5 days post-injury
Method: Semiquantitative reverse transcription polymerase chain reaction analysis. Skin specimens were kept frozen at −80° C. until homogenized for RNA extraction using the TRIzol Reagent (Invitrogen, Carlsbad, CA, USA). First strand cDNA synthesis was then performed on 5 μg of total RNA using the superscript first-strand synthesis system for reverse transcription polymerase chain reaction (RT-PCR; Invitrogen) according to the manufacturer's instructions. The PCR contained 1 μL of deoxynucleoside triphosphate mix (10 mM each dNTP), 1 μL of 10 μM each primer, 0.4 μL, (5 IU μL−1) of Platinum Taq polymerase (Invitrogen), 1.5 μL of 50 mM MgCl2 and 2 μL […] as template in a 50 μL reaction solution. Thermal cycling was started with one cycle at 94° C. for 4 min. This was followed by 25-35 cycles at 94° C. for 30 s, 59° C. for 30 s, 72° C. for 30 s and 72° C. for final extension for 10 min. PCR products were electrophoresed on 1.2% agarose gels and visualized with GelStar® Stain (Lonza Rockland Inc., Rockland, ME). […] The expression levels of target mRNA were quantified by densitometry and normalized with the corresponding internal control.

## c1cc(CN2CCCNCCNCCCNCC2)ccc1CN1CCCNCCNCCCNCC1 [AMD3100, 1,1′-[1,4-phenylenebis(methylene)]bis-1,4,8,11-tetraazacyclo-tetradecane]
[1]
  number of α-SMA positive myofibroblast cells in granulation tissues: increased
[2]
  day of complete wound closure: 23 days
[3]
  day of complete wound closure: 11 days
[3]; Tacrolimus 1.0 mg kg-1 daily, AMD3100 5.0 mg kg-1 every two days, versus saline
  effect of high doses on skin wound healing: no significant difference; also recorded: failed to demonstrate significant difference
[4]
  IC50: 51 nM
[5]
  number of hair follicles in re-epithelialized wound: few hair follicles
[6]
  day of complete wound closure: 21 days
Splinted skin wounds
  wound repair in splinted wounds: accelerated
[7]
  number of CD133+, c-Kit+ and CD34+ cells in wound tissue sections: relatively mild recruitment of stem cells
[8]
  numbers of lacZ and GFP positive cells in granulation tissues: significantly higher

## C=CC[C@@H]1/C=C(\C)C[C@H](C)C[C@H](OC)[C@H]2O[C@@](O)(C(=O)C(=O)N3CCCC[C@H]3C(=O)O[C@H](/C(C)=C/[C@@H]3CC[C@@H](O)[C@H](OC)C3)[C@H](C)[C@@H](O)CC1=O)[C@H](C)C[C@@H]2OC [Tacrolimus]
[1]
  number of α-SMA positive myofibroblast cells in granulation tissues: increased
[2]
  day of complete wound closure: 21 days
[3]
  day of complete wound closure: 11 days
[9]
  number of SDF-1 and F4/80 positive cells in wound sites: significantly greater
SDF-1 mRNA
  SDF-1 mRNA expression in granulation tissues: significantly increased
[5]
  number of hair follicles in re-epithelialized wound: few hair follicles
[6]
  day of complete wound closure: 21 days
Splinted skin wounds
  wound repair in splinted wounds: accelerated
[8]
  numbers of lacZ and GFP positive cells in granulation tissues: significantly higher
